From PMC4183595, “Study on the Main Components Interaction from Flos Lonicerae and Fructus Forsythiae and Their Dissolution In Vitro and Intestinal Absorption in Rats” (PLoS ONE, 2014)
Like-named read-outs stand apart in the source and are kept apart here.

Experiments:
[1] = Rat in vivo pharmacokinetics study after oral administration of product A, B or C; design: species or system Male Sprague-Dawley (SD) rats; AUC 0→t in product C group, increased to % compared to that in product A or B groups: concentration or dose not given beside the values; conditions: for AUC(0-t) / AUC(0-inf) / MRT / Tmax / half-life / Cmax: male, Sprague-Dawley, rat, plasma; for AUC(0-t) / AUC(0-inf) / MRT / Tmax / half-life: 10 mL·kg^−1; for AUC(0-t): oral product C group; for AUC(0-inf) / MRT / Tmax / half-life / Cmax: po, 10 mL·kg^−1, rats; for half-life: read-out: T 1/2z; for Cmax: mean±SD; for AUC 0→t in product C group, increased to % compared to that in product A or B groups: product C versus product A or B
Procedure: Product A (extract mixed with FLJ extract and water, (1∶1, v / v )), product B (extract mixed with FF extract and water, (1∶1, v / v )) and product C (extract mixed with FLJ and FF extracts, (1∶1, v / v )) were given to oral administration to rats, respectively.
Male SD rats (∼250 g) were kept in an environmentally controlled breeding room (temperature: 20±2°C, relative humidity: 60±5%) for 1 week. […] The rats were randomly divided into three groups with no less than six rats in each group to receive various administrations at a single oral dose (10 mL·kg^−1) by gastric gavage. […] Subsequently, plasma was prepared by centrifugation at 1,816×g, 4°C for 7 min, and immediately analyzed or stored at −70°C for further analysis.
The main pharmacokinetic parameters including the peak plasma concentration (C max), the time to C max (T max), the AUC from 0 to infinity (AUC 0–∞), the AUC form 0 to time (AUC 0–t), mean residence time (MRT), and terminal elimination half-life (T 1/2z) were calculated by the non-compartmental analysis of plasma concentration vs. time data using the “DAS 2.1.1” software (Mathematical Pharmacology Professional Committee of China, Shanghai, China).

Caco-2 cells = assay: In vitro Caco-2 monolayer model, apical to basolateral transport (P app); assay type: in vitro ADME, human; conditions: Caco-2 monolayer; for P app in product C group, % compared to that in product A group / P app in product C group, % compared with that in product B group: HBSS pH 6.0, apical to basolateral
Procedure: Caco-2 cells were cultured in high glucose DMEM with 10% fetal bovine serum, 1% nonessential amino acids. Cells were cultured in a humidified atmosphere of 5% CO2 at 37°C. After reaching 80% confluens, Caco-2 cells were harvested with 0.05% trypsin-EDTA solution and seeded on top of CC inserts in 6-well plates, which has a surface area of 4.2 cm^2, at a density of 1.0×10^5 cells/cm^2. The protocols for cell culture in Transwell inserts were similar to those described previously.
Hank’s balanced salt solution (HBSS) was used as the transport buffer for the transport study in Caco-2 cells monolayer model. It was prepared by dissolving 9.5 grams of commercial available HBSS powder in 1000 mL water.
Cell culture experiments were described previously. Briefly, after culture medium was aspirated, the cell monolayers were washed three times with blank HBSS. […] The monolayers were incubated with the blank HBSS for 1 h with 37°C. Thereafter the incubation medium was aspirated. Afterwards, a solution containing the compound was loaded onto the apical side. The amounts of transported compound were measured as a function of time. […] The samples were taken at 0, 1, 2, 3 and 4 h after incubation. At the end of the transport experiment, integrity of the monolayer was monitored by TEER value.

P-gp, MRP2 and BCRP = test system: P-gp, MRP2 and BCRP; design: method as in PMID 24035225, PMID 25442264; conditions: previous study; ref [21]–[22]; cited from earlier work
[2] = single oral dose 10 mL·kg^−1 of product A (FLJ extract and water 1:1)
[3] = single oral dose 10 mL·kg^−1 of product C (FLJ and FF extracts 1:1)
[4] = single oral dose 10 mL·kg^−1 of product B (FF extract and water 1:1)

Row | Compound | AUC(0-t) ([1]; rats) [ng·h/mL] | AUC(0-inf) ([1]; oral product A) [ng·h/mL] | MRT ([1]; oral product A) [h] | Tmax ([1]; oral product A) [h] | half-life ([1]; oral product A) [h] | AUC(0-inf) ([1]; oral product C) [ng·h/mL] | MRT ([1]; oral product C) [h] | Tmax ([1]; oral product C) [h] | half-life ([1]; oral product C) [h] | Cmax [1, 2] [ng/mL] | Cmax [1, 3] [ng/mL] | AUC 0→t in product C group, increased to % compared to that in product A or B groups ([1]; rats, oral) [%] | P app in product C group, % compared to that in product A group (Caco-2 cells) [%] | AUC(0-inf) ([1]; oral product B) [ng·h/mL] | MRT ([1]; oral product B) [h] | Tmax ([1]; oral product B) [h] | half-life ([1]; oral product B) [h] | Cmax [1, 4] [ng/mL] | bioavailability in product C group compared with that in product A group ([1]; rats, oral) | bioavailability in product C group compared with that in product B group ([1]; rats, oral) | also measured
1 | O=C(C=Cc1ccc(O)c(O)c1)OC1CC(O)(C(=O)O)CC(O)C1OC(=O)C=Cc1ccc(O)c(O)c1 (stereo not drawn) [3,4-dicaffeoylquinic acid] | 24.4 | 22.9 | 7.03 | 0.25 | 4.92 ± 0.617 | 38.8 | 8.95 | 0.2 | 6.82 ± 2.38 | 4.79 ± 1.87 | 12.5 ± 4.07 | 318 | 137 |  |  |  |  |  |  |  | efflux transporters influencing the intestinal absorption (P-gp, MRP2 and BCRP): influenced by P-gp, MRP2 and BCRP
2 | O=C(/C=C/c1ccc(O)c(O)c1)O[C@@H]1C[C@](O)(C(=O)O)C[C@@H](OC(=O)/C=C/c2ccc(O)c(O)c2)[C@H]1O [3,5-dicaffeoylquinic acid] | 82.4 | 71.5 | 7.3 |  | 4.87 ± 1.29 | 89.7 | 9.63 | 0.167 | 7.33 ± 0.79 | 27.6 ± 4.73 | 30.8 ± 5.66 | 162 | 164 |  |  |  |  |  |  |  | efflux transporters influencing the intestinal absorption (P-gp, MRP2 and BCRP): influenced by P-gp, MRP2 and BCRP
3 | O=C(/C=C/c1ccc(O)c(O)c1)O[C@@H]1C[C@](O)(C(=O)O)C[C@@H](O)[C@H]1O [Chlorogenic acid] | 1270 | 707 | 5.78 | 0.167 | 5.37 ± 0.733 |  | 8.28 | 0.167 | 7.68 ± 0.535 | 367 ± 169 | 661 ± 294 | 215 | 140 |  |  |  |  |  |  |  | efflux transporters influencing the intestinal absorption (P-gp, MRP2 and BCRP): influenced by P-gp, MRP2 and BCRP
4 | O=c1c(O[C@@H]2O[C@H](CO)[C@@H](O)[C@H](O)[C@H]2O)c(-c2ccc(O)c(O)c2)oc2cc(O)cc(O)c12 [Isoquercitrin] |  | 2.63 | 9.28 | 0.167 | 7.27 ± 0.438 | 5.51 | 9.25 | 0.267 | 7.58 ± 0.868 | 0.504 ± 0.351 | 1 ± 0.3 |  | 169 | 3.25 | 8.3 | 0.333 | 7.85 ± 0.515 | 0.619 ± 0.212 | no significantly different | no significantly different | P app in product C group, % compared with that in product B group (Caco-2 cells): 234%
5 | COC(=O)C1=CO[C@@H](O[C@@H]2O[C@H](CO)[C@@H](O)[C@H](O)[C@H]2O)[C@@H]2[C@@H](C)[C@@H](O)C[C@H]12 [Loganin] | 108 | 92.9 | 5.82 | 0.35 | 2.07 ± 0.205 | 140 | 7.83 | 0.267 | 7.33 ± 0.273 | 28 ± 4.93 | 54.7 ± 8.63 | 121 | 211 |  |  |  |  |  |  |  | 
6 | O=c1cc(-c2ccc(O)c(O)c2)oc2cc(O)cc(O)c12 [Luteolin] |  | 88.3 | 5.78 | 0.167 | 7.05 ± 0.943 | 46.9 | 4.67 | 0.167 | 4.42 ± 0.262 | 44.9 ± 19.8 | 19.5 ± 5.43 |  | 240 |  |  |  |  |  |  |  | AUC 0→t in product C group compared with product A or B group ([1]; rats, oral, same dosages administrated): lower significantly
7 | O=c1cc(-c2ccc(O)c(O)c2)oc2cc(O[C@@H]3O[C@H](CO)[C@@H](O)[C@H](O)[C@H]3O)cc(O)c12 [Luteoloside] | 4.76 | 2.97 |  | 0.167 | 6.38 ± 0.22 | 5 |  | 0.167 | 9.65 ± 1.43 | 1.26 ± 0.655 | 2.48 ± 1.34 | 137 | 174 |  |  |  |  |  |  |  | 
8 | COc1cc(C2OCC3C(c4ccc(O[C@@H]5O[C@H](CO)[C@@H](O)[C@H](O)[C@H]5O)c(OC)c4)OCC23)ccc1O (stereo partly drawn) [Pinoresinol-β-D-glucoside] | 17.1 |  |  |  |  | 67.8 | 7.57 | 0.167 | 5.25 ± 0.472 |  | 32.3 ± 7.57 | 299 |  | 32 | 4.1 | 0.167 | 3.37 ± 0.21 | 11.9 ± 4.36 |  |  | P app, product C group versus product B group (Caco-2 cells): no significant difference
9 | O=c1c(O)c(-c2ccc(O)c(O)c2)oc2cc(O)cc(O)c12 [Quercetin] |  | 144 | 8.22 | 0.167 | 4.62 ± 0.877 | 52.4 | 7.12 | 0.167 | 4.67 ± 1.05 | 15.6 ± 4.39 | 8.02 ± 0.493 |  | 125 | 65 | 7 | 0.167 | 5.27 ± 0.93 | 12.6 ± 2.23 | opposite | opposite | P app in product C group, % compared with that in product B group (Caco-2 cells): 256%
10 | O=C(O)[C@]1(O)C[C@@H](O)[C@@H](O)[C@H](O)C1 [Quinic acid] |  |  | 3.98 | 0.35 | 3.82 ± 0.28 |  | 7.35 | 0.167 | 5.5 ± 1.27 |  |  |  | 301 |  | 4.5 | 0.3 | 4.1 ± 0.628 | 358 ± 157 | no significant difference | higher significantly | P app in product C group, % compared with that in product B group (Caco-2 cells): 24.0%
11 | C[C@@H]1O[C@@H](OC[C@H]2O[C@@H](Oc3c(-c4ccc(O)c(O)c4)oc4cc(O)cc(O)c4c3=O)[C@H](O)[C@@H](O)[C@@H]2O)[C@H](O)[C@H](O)[C@H]1O [Rutin] |  | 10.3 | 5.02 | 0.167 | 7.93 ± 0.837 | 22.8 | 4.88 | 0.167 | 7.55 ± 0.613 | 4.08 ± 1.99 | 19.8 ± 3.93 |  | 213 | 30.5 | 4.35 |  | 8.17 ± 1.55 | 14.6 ± 1.65 | significantly higher | no significant difference | P app in product C group, % compared with that in product B group (Caco-2 cells): 210%
